Assay results as given in US10172824B2, “Crystal forms of scutellarin aglycone and preparation thereof” (YUNNAN INSTITUTE OF MATERIA MEDICA, priority 2014, dated 2019).
Where two headings read alike, the source gives them in different places.

Legend:
[1] = 360 mg scutellarin orally to a subject, 5 h (blood collected at 1, 3, 5, 8 h; determined only at 5 h); cited from earlier work
[2] = Stability of crystal forms; details: room temperature below 50° C.
[3] = test system: MCAO-induced ischemia-reperfusion rat; experiment: Cerebral infarction percentage 48 h after reperfusion (TTC staining) in MCAO ischemia/reperfusion rats; type: in vivo
Protocol: SD male rat was fasted one night, with free access to water. At the day of experiment, the rat was anesthetized by intraperitoneal injection of 35% chloral hydrate (350 mg/kg), and fixed on its back. The skin was incised along the neck median line to expose the carotid artery at the right side, and the internal and external carotid artery were separated. 3# nylon wire (a diameter of 0.285 mm) was inserted from the free end of the external carotid artery, introduced into the internal carotid artery from the distal end of the external carotid artery, and inserted at the artery of Willis's circle in brain, to effectively occlude the middle cerebral artery. The inserted nylon wire was 18˜20 mm away from carotid artery bifurcation. The free end of the external carotid artery and the intra cavitary nylon wire were ligated, to prevent bleeding. […] After middle cerebral artery occlusion (MCAO) for 2 h, the nylon wire was carefully drawn out from the internal carotid artery, and the internal carotid artery was subjected to reperfusion. […] The animals were grouped depending on the score of nerve function. Three groups were classified in the experiment, 15 animals for each group. […] In the sham-operated group and the model control group, an equal volume of 0.3% sodium carboxymethyl cellulose (CMC-Na) was administered. […] The rat was decapitated and the brain was taken 48 h after reperfusion, and was quickly frozen. The brain was cut along the coronal plane to obtain a 2 mm-thick slice. The brain slice was put in 1% TTC stain solution, and stained at 37° C. in dark by incubation for 30 min. After fixing with 10% formaldehyde solution for 1 week, the digits and images were stored in computer by digital camera imaging system. The infarction area and the whole brain area were determined by Medical Microscopic image Compute-aided Analysis System (MIAS) of Image Center of Beihang University, and the cerebral infarction percentage was calculated (the percentage of the infarction area in the whole brain area). […]

[4] = compared with scutellarin; cited from earlier work
[5] = cited from earlier work; for substances detected in rat plasma: oral
[6] = test system: ischemia/reperfusion rats; experiment: Evaluation of the degree of nerve function impairment (behavior score) in MCAO ischemia/reperfusion rats; type: in vivo, rat
Protocol: SD male rat was fasted one night, with free access to water. At the day of experiment, the rat was anesthetized by intraperitoneal injection of 35% chloral hydrate (350 mg/kg), and fixed on its back. The skin was incised along the neck median line to expose the carotid artery at the right side, and the internal and external carotid artery were separated. 3# nylon wire (a diameter of 0.285 mm) was inserted from the free end of the external carotid artery, introduced into the internal carotid artery from the distal end of the external carotid artery, and inserted at the artery of Willis's circle in brain, to effectively occlude the middle cerebral artery. The inserted nylon wire was 18˜20 mm away from carotid artery bifurcation. The free end of the external carotid artery and the intra cavitary nylon wire were ligated, to prevent bleeding. […] After middle cerebral artery occlusion (MCAO) for 2 h, the nylon wire was carefully drawn out from the internal carotid artery, and the internal carotid artery was subjected to reperfusion. […] The animals were grouped depending on the score of nerve function. Three groups were classified in the experiment, 15 animals for each group. […] In the sham-operated group and the model control group, an equal volume of 0.3% sodium carboxymethyl cellulose (CMC-Na) was administered. […] 2.3.1 Evaluation of the degree of nerve function impairment: the behavioral disorder of the animal was scored by double blind method at 1 h (before administration), 12 h, 24 h, 36 h, 48 h after reperfusion, according to the score standards in the following table, so as to evaluate the degree of nerve function impairment, wherein the total score is 16, the higher the score is, the more serious the degree of nerve function impairment is in the animal (Li Qian, Wang Qiujuan, Guo Qinglong, Protective effect of TQ0701-2 on cerebral ischemia reperfusion injury in rats [J]. CHINESE JOURNAL OF CLINICAL PHARMACOLOGY AND THERAPEUTICS, 2010, 15(1): 36-40.) Data was processed by the statistical analysis software SPSS11.5, and the results were expressed by x±s, and mathematical statistics were performed by using t-test for normal distribution data and using rank-sum test for skewed distribution.

In the case of `O=C(O)[C@H]1O[C@@H](Oc2cc3oc(-c4ccc(O)cc4)cc(=O)c3c(O)c2O)[C@H](O)[C@@H](O)[C@@H]1O` [scutellarin], the “blood concentration of scutellarin” value [1] is given as 20 ng/mL.

For `O=c1cc(-c2ccc(O)cc2)oc2cc(O)c(O)c(O)c12` [crystal form A, 5,6,7-trihydroxy-2-(4-hydroxyphenyl)-4H-benzopyran-4-one], the “stability of crystal form” value [2] was “the most stable crystal forms”.

For `O=c1cc(-c2ccc(O)cc2)oc2cc(O)c(O)c(O)c12` [scutellarin aglycone, 5,6,7-trihydroxy-2-(4-hydroxyphenyl)-4H-benzopyran-4-one], the “reducing rate of cerebral infarction area” value ([3]; crystal form A, 45.8 mg/kg intragastric, compared to model control group, P<0.05) was 42.46%, the “Cerebral infarction percentage (%)” value ([3]; ischemia/reperfusion rats, 45.8 mg/kg, TTC stain, x ± s, n = 15) was 9.16 ± 0.09 % and the “Reducing rate (%)” value ([3]; reduction of cerebral infarction percentage compared to the model control group, 45.8 mg/kg) was 42.46%. The “oral absorption relative to scutellarin” value [4] was “about 3 fold”, the “permeability in gastrointestinal tract” value [4] was “higher permeability in gastrointestinal tract than scutellarin” and the “substances detected in rat plasma” value ([5]; 20 mg/kg scutellarin aglycone) was “only scutellarin was detected”. For the same compound, the “substances detected in rat plasma” value ([5]; 200 mg/kg scutellarin aglycone) was “both scutellarin aglycone and scutellarin could be detected”, the metabolic stability ([5]; rats, intragastric, relative to scutellarin) was “metabolically stable relative to scutellarin” and the “improvement rate of nerve function disorder” value ([6]; crystal form A, 45.8 mg/kg intragastric, 48 h, compared to model control group, P<0.05) was 34.97%. The “Behavior score at different time after reperfusion, 1 h” value ([6]; ischemia/reperfusion rats, 45.8 mg/kg, 1 h after reperfusion (before administration), total score 16, x ± s, n = 15) was 10.57 ± 2.22, the “Behavior score at different time after reperfusion, 12 h” value ([6]; ischemia/reperfusion rats, 45.8 mg/kg, 12 h after reperfusion, total score 16, x ± s, n = 15) was 7.96 ± 2.29 and the “Behavior score at different time after reperfusion, 24 h” value ([6]; ischemia/reperfusion rats, 45.8 mg/kg, 24 h after reperfusion, total score 16, x ± s, n = 15) was 7.15 ± 2.56. For the same compound, the “Behavior score at different time after reperfusion, 36 h” value ([6]; ischemia/reperfusion rats, 45.8 mg/kg, 36 h after reperfusion, total score 16, x ± s, n = 15) was 6.23 ± 2.87 and the “Behavior score at different time after reperfusion, 48 h” value ([6]; ischemia/reperfusion rats, 45.8 mg/kg, 48 h after reperfusion, total score 16, x ± s, n = 15) was 5.69 ± 2.67.
